Measurements from patent US20240209053A1 (Protagonist Therapeutics, Inc., priority 2021, published 2024).
Numbered stars: 1 amine (or outer) side, 2 acyl side, 3 side chain; on linkers, the order of the positions; unused ones are H or OH. Bridge positions count the residues as written; N and C are the ends. Square brackets hold non-standard residues; d marks the D form. Side chains are listed from the residue outwards. Peptide text beside a SMILES is read from it. * marks the point of attachment. Dip = N[C@H](C(=O)O)C(c1ccccc1)c1ccccc1; Hag = O=C([C@H](CCC=[*:3])N[*:1])[*:2]; Palmitoyl = CCCCCCCCCCCCCCCC(=O)*; tBuAla = CC(C)(C)C[C@H](N)C(=O)O; β3hF = N[C@H](CC(=O)O)Cc1ccccc1; NMeL = CN[C@@H](CC(C)C)C(=O)O; Isovaleryl = CC(C)CC(=O)*; Ahx = NCCCCCC(=O)O

What was measured:
[1] = target: human ferroportin (SLC40A1) fused in frame with GFP, stably expressed on HEK293 cells (human) (UniProt Q9NP59); assay: cell-based or functional assay
[2] = target: T1, ferroportin fused to green fluorescent protein (Mus musculus, UniProt Q9JHI9); conditions: read-out: EC50 (50% of maximal loss of fluorescence); cells incubated 24 hours; reference preparations of Hep25; cited from earlier work
T1 sequence (Q9JHI9 1-570): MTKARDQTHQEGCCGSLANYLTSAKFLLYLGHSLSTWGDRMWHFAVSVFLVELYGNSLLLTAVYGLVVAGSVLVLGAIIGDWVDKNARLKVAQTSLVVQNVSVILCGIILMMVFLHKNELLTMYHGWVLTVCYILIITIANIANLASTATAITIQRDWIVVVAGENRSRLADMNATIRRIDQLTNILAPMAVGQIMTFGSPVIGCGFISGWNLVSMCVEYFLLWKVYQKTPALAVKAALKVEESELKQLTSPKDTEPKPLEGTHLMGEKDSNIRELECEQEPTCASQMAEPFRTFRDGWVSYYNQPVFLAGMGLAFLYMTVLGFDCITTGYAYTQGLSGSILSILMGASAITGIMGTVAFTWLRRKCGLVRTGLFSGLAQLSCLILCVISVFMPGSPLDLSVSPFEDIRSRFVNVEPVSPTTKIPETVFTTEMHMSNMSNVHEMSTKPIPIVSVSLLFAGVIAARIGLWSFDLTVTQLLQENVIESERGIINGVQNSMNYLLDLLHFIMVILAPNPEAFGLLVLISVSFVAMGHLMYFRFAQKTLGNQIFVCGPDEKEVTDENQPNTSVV

[3] = target: T2, human ferroportin (SLC40A1) (Homo sapiens, UniProt Q9NP59); assay: FPN activity assay: internalization/degradation of ferroportin-GFP in stably transfected HEK293 cells (decrease in GFP fluorescence); type: cell-based; conditions: compound incubated at least 18 hours
T2 sequence (Q9NP59 1-571): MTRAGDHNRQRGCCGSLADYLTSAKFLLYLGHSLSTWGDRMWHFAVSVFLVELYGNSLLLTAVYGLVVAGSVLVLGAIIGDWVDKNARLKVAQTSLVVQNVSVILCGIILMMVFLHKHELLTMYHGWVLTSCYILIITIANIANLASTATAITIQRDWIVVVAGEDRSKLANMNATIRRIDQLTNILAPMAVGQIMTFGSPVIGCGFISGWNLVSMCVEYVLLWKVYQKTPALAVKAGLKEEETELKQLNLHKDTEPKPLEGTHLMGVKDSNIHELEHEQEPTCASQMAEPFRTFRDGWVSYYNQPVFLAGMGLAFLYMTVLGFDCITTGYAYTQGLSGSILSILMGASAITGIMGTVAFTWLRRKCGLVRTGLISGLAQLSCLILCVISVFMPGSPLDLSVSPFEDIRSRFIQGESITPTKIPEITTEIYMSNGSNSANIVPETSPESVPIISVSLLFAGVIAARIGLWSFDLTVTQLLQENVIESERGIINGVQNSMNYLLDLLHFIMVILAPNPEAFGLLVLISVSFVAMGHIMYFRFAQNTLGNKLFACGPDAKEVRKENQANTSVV
In short: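 HEK293 cells stably expressing human ferroportin C-terminally fused to GFP were exposed to peptides for at least 18 h, at most 24 h. Internalization/degradation read as loss of GFP fluorescence; EC50 derived. Retro-inverse mini-hepcidin peptides used as control standards.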

ferroportin = target: T3, ferroportin (Homo sapiens, UniProt Q9NP59); assay: T47D cell-based ferroportin internalization assay in presence of 0.5% mouse serum albumin (MSA); conditions: T47D cells
T3 sequence (Q9NP59 1-571): T2 sequence (Q9NP59 1-571)
In short: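 T47D cells exposed 1 hr to peptide series (10 points from ~5 μM) premixed 30 min at room temperature with 0.5% mouse serum albumin, then 200 nM AF647-labelled ferroportin-binding peptide for 2 hr. Flow cytometry MFI of live singlets; IC50 by 4-parameter fit.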

| IC50 [3] [nM] | IC50 (ferroportin) [nM] | Compound | further results |
| --- | --- | --- | --- |
|  |  | Mini-Hepcidin 1-9 (peptide) | Potency EC50 [1]: 712 nM |
|  |  | CC[C@H](C)[C@@H]1NC(=O)[C@@H](NC(=O)[C@@H](NC(=O)[C@@H]2CCCN2C(=O)[C@H](Cc2ccccc2)NC(=O)[C@H](Cc2c[nH]cn2)NC(=O)[C@@H](NC(=O)[C@@H](N)CC(=O)O)[C@@H](C)O)[C@@H](C)CC)CSSC[C@@H](C(=O)N[C@@H](CCCCN)C(=O)N[C@H](C(=O)O)[C@@H](C)O)NC(=O)[C@@H]2CSSC[C@@H]3NC(=O)[C@@H]4CSSC[C@H](NC(=O)[C@H](Cc5ccccc5)NC1=O)C(=O)N[C@@H](CSSC[C@H](NC(=O)[C@H](CCCCN)NC(=O)[C@H](CO)NC(=O)[C@H](CCCNC(=N)N)NC(=O)[C@H](Cc1c[nH]cn1)NC3=O)C(=O)NCC(=O)N[C@@H](CCSC)C(=O)N2)C(=O)NCC(=O)N4 [Hepcidin, Hy-DTHFPIC(1)IFC(2)C(3)GC(2)C(4)HRSKC(3)GMC(4)C(1)KT-OH] | EC50 [2]: 5 to 15 nM |
|  |  | RI-Mini Hepcidin (peptide) | Potency EC50 (nM) [1]: > 10000 nM |
|  |  | Hepcidin (ligand) | Potency EC50 [1]: 34 nM |
| 10 to 100 | 10 to 100 | CCCCCCCCCCCCCCCC(=O)NCCCCCC(=O)NCCCC[C@@H]1NC(=O)[C@@H]2CCCN2C(=O)[C@H](C(c2ccccc2)c2ccccc2)NC(=O)[C@H](Cc2c[nH]cn2)NC(=O)[C@H]([C@@H](C)O)NC(=O)[C@@H](NC(=O)CC(C)C)CCC=CCC[C@@H](C(=O)N[C@H](CC(N)=O)Cc2ccccc2)NC(=O)[C@H]([C@@H](C)CC)NC1=O [Compd 24] (Isovaleryl-[Hag]TH[Dip]PK([Ahx-Palmitoyl])I[Hag][β3hF]-NH2; staple 1-8) |  |
| 100 to 500 | 100 to 500 | CCCCCCCCCCCCCCCC(=O)NCCCCCC(=O)NCCCC[C@H](NC(=O)C[C@H](Cc1ccccc1)NC(=O)[C@H]1CCCC=CCC[C@@H](NC(=O)CC(C)C)C(=O)N[C@@H]([C@@H](C)O)C(=O)N[C@@H](Cc2c[nH]cn2)C(=O)N[C@@H](C(c2ccccc2)c2ccccc2)C(=O)N2CCC[C@H]2C(=O)N[C@@H](C)C(=O)N[C@@H]([C@@H](C)CC)C(=O)N1)C(=O)N[C@H](CCCCN)C(N)=O [Compd 71] |  |
| 100 to 500 | > 500 | CCCCCCCCCCCCCCCC(=O)NCCCCCC(=O)NCCCC[C@H](NC(=O)C[C@H](Cc1ccccc1)NC(=O)[C@H]1CCC=CCCC[C@@H](NC(=O)CC(C)C)C(=O)N[C@@H]([C@@H](C)O)C(=O)N[C@@H](Cc2c[nH]cn2)C(=O)N[C@@H](C(c2ccccc2)c2ccccc2)C(=O)N2CCC[C@H]2C(=O)N[C@@H](C)C(=O)N[C@@H]([C@@H](C)CC)C(=O)N1)C(=O)N[C@H](CCCCN)C(N)=O [Compd 74] |  |
| 10 to 100 | 1 to 10 | CCCCCCCCCCCCCCCC(=O)NCCCCCC(=O)NCCCC[C@H](NC(=O)C[C@H](Cc1ccccc1)NC(=O)[C@@H]1CCC=CCC[C@H](NC(=O)CC(C)C)C(=O)N[C@@H]([C@@H](C)O)C(=O)N[C@@H](Cc2c[nH]cn2)C(=O)N[C@@H](C(c2ccccc2)c2ccccc2)C(=O)N2CCC[C@H]2C(=O)N[C@@H](CC(C)(C)C)C(=O)N[C@@H]([C@@H](C)CC)C(=O)N1)C(=O)N[C@H](CCCCN)C(N)=O [Compd 62] (Isovaleryl-[Hag]TH[Dip]P[tBuAla]I[Hag][β3hF]K([Ahx-Palmitoyl])[dK]-NH2; staple 1-8) |  |
| 10 to 100 | 100 to 500 | CCCCCCCCCCCCCCCC(=O)NCCCCCC(=O)NCCCC[C@H](NC(=O)[C@H](Cc1ccccc1)N(C)C(=O)[C@@H]1CCC=CCC[C@H](NC(=O)CC(C)C)C(=O)N[C@@H]([C@@H](C)O)C(=O)N[C@@H](Cc2c[nH]cn2)C(=O)N[C@@H](C(c2ccccc2)c2ccccc2)C(=O)N2CCC[C@H]2C(=O)N[C@@H](C)C(=O)N[C@@H]([C@@H](C)CC)C(=O)N1)C(=O)N[C@H](CCCCN)C(N)=O [Compd 54] |  |
| 1 to 10 | 10 to 100 | CCCCCCCCCCCCCCCC(=O)NCCCCCC(=O)NCCCC[C@@H](C(=O)N[C@H](CCCCN)C(N)=O)N(C)C(=O)C[C@H](Cc1ccccc1)NC(=O)[C@@H]1CCC=CCC[C@H](NC(=O)CC(C)C)C(=O)N[C@@H]([C@@H](C)O)C(=O)N[C@@H](Cc2c[nH]cn2)C(=O)N[C@@H](C(c2ccccc2)c2ccccc2)C(=O)N2CCC[C@H]2C(=O)N[C@@H](C)C(=O)N[C@@H]([C@@H](C)CC)C(=O)N1 [Compd 55] |  |
| 10 to 100 | 1 to 10 | CCCCCCCCCCCCCCCC(=O)NCCCCCC(=O)NCCCC[C@H](NC(=O)C[C@H](Cc1ccccc1)NC(=O)[C@@H]1CCC=CC[C@H](NC(=O)CC(C)C)C(=O)N[C@@H]([C@@H](C)O)C(=O)N[C@@H](Cc2c[nH]cn2)C(=O)N[C@@H](C(c2ccccc2)c2ccccc2)C(=O)N2CCC[C@H]2C(=O)N[C@@H](C)C(=O)N[C@@H]([C@@H](C)CC)C(=O)N1)C(=O)N[C@@H](CCCNC(=N)N)C(N)=O [Compd 23] |  |
| 1 to 10 | 1 to 10 | CCCCCCCCCCCCCCCC(=O)NCCCCCC(=O)NCCCC[C@H](NC(=O)C[C@H](Cc1ccccc1)NC(=O)[C@@H]1CCC=CCCC[C@H](NC(=O)CC(C)C)C(=O)N[C@@H]([C@@H](C)O)C(=O)N[C@@H](Cc2c[nH]cn2)C(=O)N[C@@H](C(c2ccccc2)c2ccccc2)C(=O)N2CCC[C@H]2C(=O)N[C@@H](C)C(=O)N[C@@H]([C@@H](C)CC)C(=O)N1)C(=O)N[C@H](CCCCN)C(N)=O [Compd 29] |  |
| 100 to 500 | 10 to 100 | CCCCCCCCCCCCCCCC(=O)NCCCCCC(=O)NCCCC[C@H](NC(=O)C[C@H](Cc1ccccc1)NC(=O)[C@@H]1CCC=CCC[C@H](NC(=O)CC(C)C)C(=O)N[C@@H]([C@@H](C)O)C(=O)N[C@@H](Cc2c[nH]cn2)C(=O)N[C@@H](C(c2ccccc2)c2ccccc2)C(=O)N2CCC[C@H]2C(=O)N[C@@H](C)C(=O)N(C)[C@@H](CC(C)C)C(=O)N1)C(=O)N[C@H](CCCCN)C(N)=O [Compd 53] (Isovaleryl-[Hag]TH[Dip]PA[NMeL][Hag][β3hF]K([Ahx-Palmitoyl])[dK]-NH2; staple 1-8) |  |
